Data set [1] is described as follows: Cytotoxicity against human THP1 cells after 72 hrs by MTT assay. In kind it is cell-based. The note with it: THP-1 cells, read-out: NOAEL. For orientation: Tetrazolium dyes change colour on reduction, which living cells bring about.
Data set [2] relates to Trypanosoma brucei. The data set can be described thus: Inhibition of Trypanosoma brucei PTR1 at 50 uM using H2B as substrate incubated for 10 mins followed by addition of NADPH measured for 10 to 50 mins.
Data set [3] relates to Trypanosoma brucei brucei. The data set can be described thus: Antitrypanosomal activity against Trypanosoma brucei brucei Lister 427 bloodstream forms at 10 uM after 72 hrs by resazurin-based assay. The data set is classed as functional, organism-based. On the technique in general: Alamar Blue is a resazurin reagent that responds to reducing activity.
Data set [4] deals with T1, Dihydrofolate reductase (Homo sapiens) (UniProt P00374).
T1 sequence (whole entry): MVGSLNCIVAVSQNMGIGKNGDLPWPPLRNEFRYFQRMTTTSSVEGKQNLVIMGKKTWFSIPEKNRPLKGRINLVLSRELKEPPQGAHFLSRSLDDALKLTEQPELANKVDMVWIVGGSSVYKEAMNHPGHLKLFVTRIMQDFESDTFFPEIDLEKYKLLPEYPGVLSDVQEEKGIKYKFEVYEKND
In words: Inhibition of human DHFR at 50 uM using folic aid as substrate by spectrophotometric analysis.

In another data set the test system is 786-0. The data set can be described thus: Mitochondrial toxicity in human 786-O cells incubated for 6 hrs by mitotracker red staining based-uptake method. The data set is classed as cell-based. Conditions: 786-0, 6 h.
The test system of data set [5] is Leishmania mexicana. In words: Inhibition of Leishmania mexicana DHFR at 50 uM using folic aid as substrate by spectrophotometric analysis.
In the next data set the test system is A549. In words: Cytotoxicity against human A549 cells at 100 uM after 48 hrs by cell titer glo assay. In kind it is cell-based. Conditions: a549, 48 h. (Cellular ATP, detected with luciferase, serves as a proxy for viable cell number.)
Data set [6] addresses Thymidylate synthase (Homo sapiens) (UniProt P04818). The data set can be described thus: Inhibition of human thymidylate synthase at 50 uM using folic aid as substrate by spectrophotometric analysis.
The subject of another data set is WI-38. In words: Cytotoxicity against human WI38 cells at 100 uM after 48 hrs by cell titer glo assay. The data set is classed as cell-based. Conditions: wi-38, 48 h.
Data set [7] concerns Trypanosoma brucei. In words: Inhibition of Trypanosoma brucei DHFR at 50 uM using folic aid as substrate by spectrophotometric analysis.
A short description of a further data set: in vitro. The note with it: human, THP-1 cells.
Data set [8] relates to Trypanosoma brucei brucei. In words: Antitrypanosomal activity against Trypanosoma brucei brucei Lister 427 bloodstream forms after 72 hrs by resazurin-based assay. In kind it is functional, organism-based. Conditions: Lister 427, 72 h.
For data set [9], the system named is Trypanosoma brucei brucei. The data set can be described thus: Antitrypanosomal activity against Trypanosoma brucei brucei Lister 427 bloodstream forms assessed as synergy coefficient at 2.5 to 5 uM after 72 hrs in presence of MTX by resazurin-based assay. In kind it is functional.
A further data set deals with T2, Cytochrome P450 1A2 (Homo sapiens, UniProt P05177).
T2 sequence (P05177 whole entry): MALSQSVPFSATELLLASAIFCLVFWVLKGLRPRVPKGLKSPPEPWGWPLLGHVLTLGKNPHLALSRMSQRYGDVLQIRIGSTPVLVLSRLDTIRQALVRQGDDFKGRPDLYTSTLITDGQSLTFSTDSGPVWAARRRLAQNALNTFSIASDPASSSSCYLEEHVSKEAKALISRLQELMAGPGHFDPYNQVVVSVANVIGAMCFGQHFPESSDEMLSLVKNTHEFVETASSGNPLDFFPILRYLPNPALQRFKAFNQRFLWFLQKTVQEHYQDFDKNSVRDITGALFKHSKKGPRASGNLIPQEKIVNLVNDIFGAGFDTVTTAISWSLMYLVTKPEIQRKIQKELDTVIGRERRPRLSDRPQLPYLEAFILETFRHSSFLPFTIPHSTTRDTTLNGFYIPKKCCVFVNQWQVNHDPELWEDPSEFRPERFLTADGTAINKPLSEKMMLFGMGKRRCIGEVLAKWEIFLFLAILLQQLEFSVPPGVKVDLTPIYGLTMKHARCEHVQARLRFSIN
In words: (§1) Inhibition of human microsomal CYP1A2 expressed in baculovirus infected BTI-TN-5B1-4 cells at 10 uM incubated for 30 mins by luciferase assay. The note with it: bti-tn-5b1-4, 0.5 h, 10 µM. In kind it is ADME.

The test system of data set [10] is Trypanosoma brucei brucei. In words: Antitrypanosomal activity against Trypanosoma brucei brucei Lister 427 bloodstream forms assessed as synergy coefficient at 1.25 to 5 uM after 72 hrs in presence of MTX by resazurin-based assay. The data set is classed as functional.
The subject of data set [11] is Leishmania mexicana. In words: Inhibition of Leishmania mexicana PTR1 at 50 uM using H2B as substrate incubated for 10 mins followed by addition of NADPH measured for 10 to 50 mins.
In data set [12] the test system is Trypanosoma brucei. In words: (§2) Inhibition of Trypanosoma brucei PTR1 using H2B as substrate incubated for 10 mins followed by addition of NADPH measured for 10 to 50 mins.
Another data set concerns Trypanosoma cruzi. The data set can be described thus: Antitrypanosomal activity against Trypanosoma cruzi Y trypomastigotes infected in human HG39 cells after 48 hrs by RT-PCR assay.
In data set [13] the test system is Leishmania infantum. The data set can be described thus: Antiparasitic activity against Leishmania infantum MOM/MA67ITMAP263 amastigotes infected in human THP1 cells at 10 uM after 72 hrs by steady-glo luminescence assay. In kind it is functional.
For data set [14], the target named is Aurora kinase B (Homo sapiens) (UniProt Q96GD4). The data set can be described thus: Inhibition of recombinant full-length human aurora B kinase expressed in baculovirus system using MBP as substrate at 10 uM incubated for 45 mins by ADP-glo kinase assay.
Chain of Aurora kinase B (Homo sapiens) (Q96GD4 whole entry): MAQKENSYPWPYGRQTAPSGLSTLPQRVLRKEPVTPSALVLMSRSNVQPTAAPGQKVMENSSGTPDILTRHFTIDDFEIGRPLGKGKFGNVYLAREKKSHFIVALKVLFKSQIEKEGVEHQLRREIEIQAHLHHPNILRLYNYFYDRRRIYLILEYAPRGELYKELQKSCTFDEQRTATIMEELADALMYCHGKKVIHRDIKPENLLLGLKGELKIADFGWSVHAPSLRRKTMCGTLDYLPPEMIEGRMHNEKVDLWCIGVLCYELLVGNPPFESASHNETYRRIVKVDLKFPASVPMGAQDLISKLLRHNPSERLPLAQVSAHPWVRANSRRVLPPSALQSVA
The nature of data set [15]: as §2.
Data set [16] relates to Trypanosoma brucei brucei. In words: Antitrypanosomal activity against Trypanosoma brucei brucei Lister 427 bloodstream forms assessed as maximum synergy coefficient at 1.25 after 72 hrs in presence of MTX by resazurin-based assay. The data set is classed as functional.
The test system of a further data set is THP-1. The data set can be described thus: Cytotoxicity against human THP1 cells at 12.5 to 50 uM after in presence of MTX by MTT assay. The data set is classed as cell-based. Conditions: thp-1, 50 µM.
The next data set has as its target CYP1A2 (Homo sapiens, UniProt P05177). The data set is described as §1. The data set is classed as ADME.
In data set [17] the test system is Leishmania infantum. The data set can be described thus: Antiparasitic activity against Leishmania infantum MOM/MA67ITMAP263 amastigotes infected in human THP1 cell after 72 hrs by steady-glo luminescence assay. Conditions: MOM/MA67ITMAP263, THP-1, 72 h. In kind it is functional, organism-based.

The source made the active and inactive calls. The calls are words filed in the database; no cut-off is given here.

A word on the inhibition: it is the percentage by which the read-out fell short of the control. A word on the EC50: it is the concentration that produces a half-maximal response. Lower therefore signals higher potency in that assay. As usually defined, the IC50 is the midpoint of a concentration-inhibition curve. High values mean lower potency, low ones higher potency.

Chain of Thymidylate synthase (Homo sapiens) (P04818 2-313 limits assumed): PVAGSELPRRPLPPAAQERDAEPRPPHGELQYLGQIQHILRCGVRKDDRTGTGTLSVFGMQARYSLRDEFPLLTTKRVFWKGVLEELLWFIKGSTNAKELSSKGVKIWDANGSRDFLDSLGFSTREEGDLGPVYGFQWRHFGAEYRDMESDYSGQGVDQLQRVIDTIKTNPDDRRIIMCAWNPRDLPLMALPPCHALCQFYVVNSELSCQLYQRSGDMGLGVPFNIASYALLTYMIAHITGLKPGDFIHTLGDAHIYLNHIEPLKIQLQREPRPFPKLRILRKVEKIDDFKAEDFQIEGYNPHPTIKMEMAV
Description for in vitro: Selectivity index, ratio of CC50 for human THP1 cells to EC50 for Trypanosoma brucei brucei Lister 427 bloodstream forms

With `O=c1c(O)c(-c2ccc(O)cc2)oc2cc(O)ccc12` [RESOKAEMPFEROL], the MNTC at 72 h in [1] is 20 µM. Moreover, the inhibition in the data set with Trypanosoma brucei [2] is 33%; in data set [4] it was less than 30%; in the data set with Leishmania mexicana [5], less than 25%; in the data set with Trypanosoma brucei [7], less than 25%. Further, in [3], the result was Active. The Activity entry with 786-0, with A549 and in the data set with WI-38 was “Non-Toxic” throughout. In data set [6], the inhibition entry is “inactive”. In addition, the selectivity ratio in the data set “in vitro” was 4. Moreover, the EC50 in [8] came to 4.29 µM. The CI in data set [9] and in data set [10] was greater than 1.5 throughout. Moreover, the “inhibition (INH)” value against Cytochrome P450 1A2 is given as “Not Active”.

As to `COc1cccc(-c2oc3ccc(OC)cc3c(=O)c2O)c1`, the MNTC at 72 h in [1] worked out at 10 µM. The compound also returned an inhibition in the data set on Trypanosoma brucei [2] of 4%. The outcome in data set [3] was Active. For the same compound, the Activity entry with 786-0, with A549 and in the data set on WI-38 was “Non-Toxic” throughout. In “in vitro”, the selectivity ratio is 7. Besides, the inhibition result in the data set on Leishmania mexicana [11] is “inactive”. Moreover, the “inhibition (INH)” value against Cytochrome P450 1A2 was “Not Active”. Besides, in data set [10], the CI is greater than 1.

Regarding `O=c1c(O)c(-c2ccc(O)c(O)c2)oc2cc(O)cc(O)c12`, the inhibition result in the data set on Trypanosoma brucei [12] is “inactive”. This compound registered an IC50 in data set [8] of less than 30 µM.

For the compound `COc1cccc(-c2oc3ccccc3c(=O)c2O)c1`, the MNTC at 72 h in data set [1] was determined as 10 µM. The inhibition result in the data set with Trypanosoma brucei [2] and with Leishmania mexicana [11] was “inactive” each time. Besides, the outcome in data set [3] was Active. Besides, the Activity entry with 786-0, in the data set with A549 and in the data set on WI-38 was “Non-Toxic” each time. In the data set “in vitro”, the selectivity ratio is 4. Further, the “inhibition (INH)” value at Cytochrome P450 1A2 is “Not Active”.

Take `CC1CS(=O)(=O)CCN1/N=C/c1ccc([N+](=O)[O-])o1` (stereo not given) [NIFURTIMOX]: in the data set with Trypanosoma cruzi, the IC50 was 2.2 µM.

Consider `COc1ccc2c(=O)c(O)c(-c3cc(OC)c(OC)c(OC)c3)oc2c1`, for which, in data set [1], the MNTC at 72 h was 20 µM. The inhibition entry in the data set with Trypanosoma brucei [2] was “inactive”. The Activity result with 786-0 is given as “Non-Toxic”; with Leishmania infantum [13], 35%; with A549, “Non-Toxic”; with WI-38 it was “Non-Toxic”. In addition, the selectivity ratio in the data set “in vitro” was 17. Moreover, the “inhibition (INH)” value on Cytochrome P450 1A2 is given as “Not Active”.

On to `O=c1c(O)c(-c2ccc(O)c(O)c2)oc2cc(O)ccc12` [FISETIN], for which the inhibition in the data set on Trypanosoma brucei [2] is 53%; in data set [4] it was less than 30%; with Leishmania mexicana [5], less than 25%; in the data set with Trypanosoma brucei [7] it was less than 25%. For the same compound, the Activity entry in the data set on 786-0, in the data set with A549 and in the data set on WI-38 was “Non-Toxic” throughout. In addition, the inhibition entry in data set [14] was “Active”. The inhibition entry in [6] is “inactive”.

As to `COc1cc(-c2oc3cc(O)cc(O)c3c(=O)c2O)ccc1O` [ISORHAMNETIN], the IC50 came to 13.9 µM in data set [15] and 11.2 µM in data set [8].

For the compound `COc1ccc(-c2oc3ccc(OC)cc3c(=O)c2O)cc1`, in data set [1], the MNTC at 72 h came out at 20 µM. The result in data set [3] was Active. The results for the CI in [16] and in data set [9] were 3.1 and greater than 1.5, respectively. The Activity entry in the data set on THP-1, in the data set on 786-0, in the data set with A549 and in the data set on WI-38 was “Non-Toxic” throughout. Also, the selectivity ratio in “in vitro” was 1. Also, on CYP1A2, the inhibition at 0.5 h, 10 µM was determined as 72%.

`O=c1c(O)c(-c2cc(O)c(O)c(O)c2)oc2cc(O)ccc12` [ROBINETIN]: in [1], the MNTC at 72 h is 100 µM. For the same compound, the inhibition with Trypanosoma brucei [2] is 85%; in [4], less than 30%; in the data set on Leishmania mexicana [5], less than 25%; in the data set on Trypanosoma brucei [7], less than 25%. The Activity result is on record as “Non-Toxic” in the data set on 786-0, 10% in the data set with Leishmania infantum [13], “Non-Toxic” in the data set on A549 and “Non-Toxic” with WI-38. The inhibition entry in data set [14] was “Active”. Further, in [6], the inhibition result is “inactive”. The selectivity ratio in the data set “in vitro” turned out to be 5. In [8], this compound had an EC50 of 18 µM.

On to `CCCCCCCCCCCCCCCCOP(=O)([O-])OCC[N+](C)(C)C` [MILTEFOSINE], for which 2.65 µM corresponded to half-maximal inhibition in the data set with Leishmania infantum [17] (IC50).

With `C[C@@H]1O[C@@H](OC[C@H]2O[C@@H](Oc3c(-c4ccc(O)c(O)c4)oc4cc(O)cc(O)c4c3=O)[C@H](O)[C@@H](O)[C@@H]2O)[C@H](O)[C@H](O)[C@H]1O`, in the data set on Trypanosoma brucei [12], the inhibition result is “inactive”. This compound gave an IC50 in data set [8] of less than 30 µM.

Turning to `O=c1c(O)c(-c2ccc(O)cc2)oc2cc(O)cc(O)c12` [KAEMPFEROL], the IC50 in [15] turned out to be 28 µM; in [8], 9 µM.

Consider `O=c1c(O)c(-c2ccccc2O)oc2cc(O)cc(O)c12` [DATISCETIN], for which the IC50 in [15] turned out to be 76.9 µM; in data set [8], 27 µM.

In the case of `O=c1c(O)c(-c2cccc(O)c2)oc2ccccc12`, the MNTC at 72 h in data set [1] was found to be 20 µM. Also, the inhibition in the data set on Trypanosoma brucei [2] is 35%; in data set [4] it was less than 30%; in the data set on Leishmania mexicana [5], 42 to 43%; in the data set with Trypanosoma brucei [7] it was 42 to 43%; in the data set on Leishmania mexicana [11], 35%. The outcome in [3] was Active. In addition, the Activity entry in the data set with 786-0, in the data set with A549 and in the data set with WI-38 was “Non-Toxic” each time. In addition, the inhibition entry in data set [6] was “inactive”. Besides, the selectivity ratio in the data set “in vitro” is 4. This compound also yielded an EC50 in data set [8] of 5.18 µM. The “inhibition (INH)” value against Cytochrome P450 1A2 is “Not Active”.

For the origin of these results see ChEMBL document CHEMBL4431321, “Profiling of Flavonol Derivatives for the Development of Antitrypanosomatidic Drugs” (J Med Chem, 2016).
